Where a name gives a salt, the structure may show the parent alone.
Assays:
[1] = Pyloric ligation-induced ulcer (Shay ulcer) in rats; assay type: in vivo, Wistar rats (male); details: Table 2, 50 mg/kg i.d.
Protocol: Male Wistar rats (body weights, 180-200 g) were used in groups of 7 animals. After 48-hour fasting, laparotomy was performed under ether anesthesia and the pylorus was ligated with a suture. After 13 hours, the stomach was isolated under ether anesthesia and gastric juice was collected. The gastric juice was centrifuged at 3,000 r.p.m. for 10 minutes and the volume and pH value of gastric juice were determined. The pH value was determined by using pH paper. After collection of gastric juice, a 10% aqueous solution of formaldehyde was infused into the stomach until the stomach was inflated. Then, the stomach was immersed in a 10% aqueous solution of formaldehyde for 10 minutes for fixation of the tissue. After fixation, an incision was made along the greater curvature for observing ulcers which had developed in the glandular portion of the stomach. The degree of ulcer was classified according to the following ulcer index scale.
2: 1-5 small ulcers (<3 mm in diameter)
3: Six or more small ulcers or one large ulcer (>3 mm in diameter)
4: Two or more large ulcers
Each test compound was administered, as suspended in a gum arabic solution in concentration of 5%, into the duodenum immediately after pyloric ligation.

[2] = Hydrochloric acid-ethanol-induced ulcer in rats; assay type: in vivo, Wistar rats (male)
Protocol: Male Wistar rats (body weights, 170-210 g) were used in groups of 6 to 8 animals. Indomethacin, 20 mg/kg body weight, was injected subcutaneously to rats which had been deprived of food for 24 hours. After 7 hours, the stomach was excised under ether anesthesia. A 10% aqueous solution of formaldehyde was infused into the stomach until the stomach was inflated and, then, the stomach was immersed in a 10% aqueous solution of formaldehyde for 10 minutes for fixation of the tissue. After fixation, an incision was made along the greater curvature and the length of ulcers occurring in the glandular portion of the stomach was measured. The total length of ulcers occurring in a rat was taken as an ulcer index. Each test compound was orally administered, as suspended in a gum arabic solution in concentration of 5%, to rats 10 minutes before subcutaneous injection of indomethacin. Male Wistar rats (body weights, 160-190 g) were used in groups of 6 to 8 animals. One milliliter of a 60% aqueous solution of ethanol containing 150 mM hydrochloric acid was administered orally to rats which had been deprived of food for 24 hours. After one hour, the stomach was excised under ether anesthesia. In a manner similar to that described in study for indomethacin-induced ulcer, the ulcer index was determined. Each test compound was orally administered, as suspended in a gum arabic solution in concentration of 5%, to rats 1 hour before administration of hydrochloric acid-ethanol.

[3] = Acute toxicity in mice, oral; parameters: species or system ddK strain); details: mouse, in vivo, male ddK mice, 10 animals per group
Protocol: The 3,4-dihydrobenzopyran compound [I] has been confirmed to be low in toxicity. […] The corresponding values of Compounds (2) to (11) were respectively more than 2,000 mg/kg, and those of compounds (12) to (36) were all more than 3,500 mg/kg.

[4] = Stress ulcer (water immersion stress) in mice; assay type: in vivo, mice (ddK strain, male); details: Table 1, 25 mg/kg p.o.
Protocol: Male mice of ddK strain (body weights, 18-20 g) were placed in a stress cage in groups of 6 animals and immersed down to the level of the xiphoid process in a water bath at 22±1° C. to give a stress. Five hours later the mice were raised from the water bath and the stomach was removed under ether anesthesia. Into the stomach was infused 1.2 ml of a 10% aqueous solution of formaldehyde and, then, the stomach was immersed in a 10% aqueous solution of formaldehyde for 10 minutes for fixation of the tissue. After fixation, an incision was made along the greater curvature for observing ulcers which had appeared in the glandular portion of the stomach. The degree of ulceration was classified according to the following ulcer index scale and the % inhibition of ulcer was estimated.
2: Hemorrhage and erosion
3: Severe hemorrhage and erosion
Each test compound was orally administered, as suspended in a gum arabic solution in concentration of 5%, to mice 10 minutes before stress loading.

[5] = Indomethacin-induced ulcer in rats; assay type: in vivo, Wistar rats (male); details: Table 3, 50 mg/kg p.o.
Protocol: Male Wistar rats (body weights, 170-210 g) were used in groups of 6 to 8 animals. Indomethacin, 20 mg/kg body weight, was injected subcutaneously to rats which had been deprived of food for 24 hours. After 7 hours, the stomach was excised under ether anesthesia. A 10% aqueous solution of formaldehyde was infused into the stomach until the stomach was inflated and, then, the stomach was immersed in a 10% aqueous solution of formaldehyde for 10 minutes for fixation of the tissue. After fixation, an incision was made along the greater curvature and the length of ulcers occurring in the glandular portion of the stomach was measured. The total length of ulcers occurring in a rat was taken as an ulcer index. Each test compound was orally administered, as suspended in a gum arabic solution in concentration of 5%, to rats 10 minutes before subcutaneous injection of indomethacin. The doses of test compounds and the ulcer indices for treated and untreated rats are shown in Table 3 for purposes of comparison. The % inhibition of ulcer by each test compound as estimated from the ulcer index is also presented in the same table.

[6] = Antitussive action: coughing induced by tracheal stimulation in guinea pigs; assay type: in vivo; details: Cavia porcellus, ip; Table 17; intraperitoneal; up and down method
Protocol: Pentobarbital sodium 15 mg/kg was injected intraperitoneally to guinea pigs (body weight, 400 g or more) and under slight anesthesia, each guinea pig was immobilized in dorsal position. The skin in the anterior cervical region was incised along the midline and the trachea was exposed so as not to injure the subcutaneous tissue. A small hole was drilled in the anterior aspect of the trachea at a location 1.5 cm distant from the clavicle and through this hole a stimulating hair was inserted over a distance of 3 cm at an angle of 30° from the longitudinal axis of the trachea and, after one second, was pulled out. The stimulation was given 5 and 20 minutes after drilling of the small hole, and after occurrence of coughing was confirmed, each test compound was injected intraperitoneally. At 5 time points, i.e. 15, 30, 60, 90 and 120 minutes after injection, it was checked whether stimulation caused coughing in the same manner as described above. If coughing was not induced, even only once on the five occasions of stimulation, the test compound was regarded as effective, and if cough appeared on all the 5 occasions of stimulation,the test compound was regarded as ineffective. The ED50 value (mg/kg) was determined by the up and down method using 10 guinea pigs [See K. A. Brownlee et al., J. Am. Stat. Assoc. 48, 262 (1953)]. As a stimulating hair, one porcine bristle, about 5 cm long, was used.
After completion of the study, the skin and wound opening of each guinea pig were fully disinfected with acrinol solution and the skin was sutured. Then, the guniea pigs were maintained as usual. The guinea pigs were not vigorous on the day following the test, with body weights decreased, but recovered after one week. After the lapse of 10 days or more, the animals were resubmitted to the test.

[7] = Expectorant action: tracheal secretion of fluorescein sodium in rats; assay type: in vivo, Wistar rats (male); details: 50 mg/kg oral
Protocol: Male Wistar rats (body weights, 280-320 g) were used in groups of 7 animals. Each test compound was orally administered in dose of 50 mg/kg body weight to rats. Immediately after administration, 0.3 ml/100 g (body weight of rat) of a 1% aqueous solution of fluorescein sodium was injected into the caudal vein. One hour after administration of the test compound, pentobarbital sodium 100 mg/kg (body weight of rat) was injected intraperitoneally so that deep anesthesia might cause the rat to die. Then, the trachea was exposed and an incision was made in the trachea. A sonde was inserted thereinto and ligation was made. To the sonde was connected a syringe containing 10 ml of a 5% solution of sodium hydrogen carbonate kept at 37° C. and 4 ml of the solution of sodium hydrogen carbonate was injected into the lung. After 5 minutes, the fluid in the lung was removed. After this procedure of injection and removal was repeated three times, the fluid removed from the lung was filtered and the filtrate was made up with water to make 20 ml. The intensity of fluroescence was determined at the excitation wave length of 491 nm and the fluorescence wave length of 510 nm using a spectrophotometer (HITACHI model 650-10, Hitachi, Ltd.). The amount of fluorescein sodium secreted into the trachea was estimated from the intensity of fluorescence. Each test compound was administered as suspended in a gum arabic solution in concentration of 5%.

## COc1c(C)c(C)c2c(c1C)CCC(C)(CC(=O)NC(=N)N)O2 (stereo not drawn) [Compound (1), N-(3,4-Dihydro-6-methoxy-2,5,7,8-tetramethyl-2H-benzopyran-2-yl)acetylguanidine]
[1]; control 1.77 ± 0.54
  pH value of gastric juice: 2.07 ± 0.94
[1]; control 5.09 ± 0.40
  Volume of gastric juice: 3.36 ± 0.90 ml/100 g body weight
[1]; scale 0-5, control 3.86 ± 0.40
  Ulcer index (mean ± S.E.): 2.33 ± 0.42
[2]; Rattus norvegicus, po, 1 h, Table 7, 25 mg/kg p.o.
  inhibition in vivo at 25 mg/kg: 91.1%
[2]; Table 4, 50 mg/kg p.o., control 7.36 ± 1.23
  Ulcer index (mean ± S.E.): 0.39 ± 0.19 mm
[3]
  LD50: 3560 mg/kg
[4]
  % Inhibition of ulcer: 61.98%
[4]; control 2.63 ± 0.18
  Ulcer index (mean ± S.E.): 1.00 ± 0.63 mm
[5]
  % Inhibition of ulcer: 77.80%
[5]; control 10.36 ± 2.07
  Ulcer index (mean ± S.E.): 2.30 ± 0.58 mm

## COc1cc(C(=O)N2CCN(CCC3(C)CCc4c(C)c(OC)c(C)c(C)c4O3)CC2)cc(OC)c1OC (stereo not drawn) [Compound (17), 3,4-Dihydro-6-methoxy-2-[2-[4-(3,4,5-trimethoxybenzoyl)piperazin-1-yl]ethyl]-2,5,7,8-tetramethyl-2H-benzopyran]
[2]; Rattus norvegicus, po, 1 h, Table 9, 50 mg/kg p.o.
  inhibition in vivo at 50 mg/kg: 65.7%
[2]; Table 9, 50 mg/kg p.o., control 7.22 ± 0.36
  Ulcer index (mean ± S.E.): 2.48 ± 0.68 mm
[6]
  ED50: 113 mg/kg
[7]; Table 13, control 5.30 ± 0.40
  Secretory amount (mean ± S.E.): 7.90 ± 0.72 μg/100 g (body weight of rat)/
[7]; Table 15, control 5.20 ± 0.78
  Secretory amount (mean ± S.E.): 9.44 ± 1.14 μg/100 g (body weight of rat)/

## COc1ccc(C(=O)N2CCN(CCC3(C)CCc4c(C)c(OC)c(C)c(C)c4O3)CC2)cc1 (stereo not drawn) [Compound (19), 1-[2-(3,4-Dihydro-6-methoxy-2,5,7,8-tetramethyl-2H-benzopyran-2-yl)ethyl]-4-(4-methoxybenzoyl)piperazine]
[6]
  ED50: 50.1 mg/kg
[7]; Table 13, control 5.30 ± 0.40
  Secretory amount (mean ± S.E.): 8.12 ± 0.58 μg/100 g (body weight of rat)/

## CCOC(CN1CCN(CC(C)C(=O)c2ccccc2)CC1)c1ccccc1 (stereo not drawn) [Eprazinone hydrochloride, 3-[4-(β-ethoxyphenethyl)-1-piperadinyl]-2-methylpropiophenone hydrochloride, reference compound]
[6]
  ED50: 122 mg/kg
[7]; Table 13, control 5.30 ± 0.40
  Secretory amount (mean ± S.E.): 5.26 ± 0.40 μg/100 g (body weight of rat)/
[7]; Table 14, control 1.60 ± 0.18
  Secretory amount (mean ± S.E.): 2.67 ± 0.18 μg/100 g (body weight of rat)/
[7]; Table 16, control 6.455 ± 0.766
  Secretory amount (mean ± S.E.): 5.736 ± 0.369 μg/100 g (body weight of rat)/

— US4728650A, “3,4-dihydrobenzopyran derivatives and medicinal uses thereof” (Kuraray Co., Ltd., priority 1985, dated 1988)
